According to the NIST ThermoML archive (doi:10.1021/je301103d):
Numbers after ± are expanded uncertainties.

What was measured:
[1] = refractive index (Na D-line) (dimensionless); conditions: 101.33 kPa, Liquid, Standard Abbe refractometry
[2] = 101.33 kPa, Liquid; for viscosity: Cone and plate viscometry; for mass density: Vibrating tube method; for electrical conductivity: conductivity meter (DDJS-308A)

## C[C@H](N)C(=O)[O-].C[N+](C)(C)CCO [2-hydroxy-N,N,N-trimethylethanaminium L-alaninate]
[1]; 293.15 K
  refractive index: 1.5146 ± 0.0011
[1]; 298.15 K
  refractive index: 1.514 ± 0.0011
[1]; 303.15 K
  refractive index: 1.5127 ± 0.0011
[1]; 308.15 K
  refractive index: 1.5118 ± 0.0011
[1]; 313.15 K
  refractive index: 1.5105 ± 0.0011
[1]; 318.15 K
  refractive index: 1.5094 ± 0.0011
[1]; 323.15 K
  refractive index: 1.5084 ± 0.0011
[1]; 328.15 K
  refractive index: 1.5072 ± 0.0011
[1]; 333.15 K
  refractive index: 1.506 ± 0.0011
[1]; 338.15 K
  refractive index: 1.5052 ± 0.0011
[1]; 343.15 K
  refractive index: 1.5041 ± 0.0011
[2]; 298.15 K
  viscosity: 385.6 ± 45 mPa·s
  mass density: 1112.94 ± 2 kg/m3
  electrical conductivity: 0.00213 ± 7e-05 S/m
[2]; 303.15 K
  viscosity: 234.9 ± 27 mPa·s
  mass density: 1110.07 ± 2 kg/m3
  electrical conductivity: 0.00577 ± 0.00018 S/m
[2]; 308.15 K
  viscosity: 136.8 ± 15 mPa·s
  mass density: 1107.01 ± 2 kg/m3
  electrical conductivity: 0.00907 ± 0.00027 S/m
[2]; 313.15 K
  viscosity: 89 ± 9.9 mPa·s
  mass density: 1104.04 ± 2 kg/m3
  electrical conductivity: 0.0126 ± 0.00038 S/m
[2]; 318.15 K
  viscosity: 51.8 ± 5.7 mPa·s
  mass density: 1101.21 ± 2 kg/m3
  electrical conductivity: 0.017 ± 0.00051 S/m
[2]; 323.15 K
  viscosity: 31.5 ± 3.5 mPa·s
  mass density: 1098.37 ± 2 kg/m3
  electrical conductivity: 0.0249 ± 0.00075 S/m
[2]; 328.15 K
  viscosity: 21.5 ± 2.4 mPa·s
  mass density: 1095.54 ± 2 kg/m3
  electrical conductivity: 0.0309 ± 0.00093 S/m
[2]; 333.15 K
  viscosity: 14 ± 1.5 mPa·s
  mass density: 1092.69 ± 2 kg/m3
  electrical conductivity: 0.0397 ± 0.0012 S/m
[2]; 338.15 K
  viscosity: 10 ± 1.1 mPa·s
  mass density: 1089.85 ± 2 kg/m3
  electrical conductivity: 0.0518 ± 0.0016 S/m
[2]; 343.15 K
  viscosity: 7.4 ± 0.8 mPa·s
  mass density: 1087.04 ± 2 kg/m3
  electrical conductivity: 0.0655 ± 0.002 S/m
[2]; 348.15 K
  viscosity: 5.7 ± 0.6 mPa·s
  mass density: 1084.27 ± 2 kg/m3
  electrical conductivity: 0.0822 ± 0.0025 S/m
[2]; 353.15 K
  viscosity: 4.4 ± 0.5 mPa·s
  mass density: 1081.51 ± 2 kg/m3
  electrical conductivity: 0.101 ± 0.003 S/m

## C[N+](C)(C)CCO.O=C([O-])[C@@H]1CCCN1 [2-hydroxy-N,N,N-trimethylethanaminium L-prolinate]
[1]; 293.15 K
  refractive index: 1.5419 ± 0.0011
[1]; 298.15 K
  refractive index: 1.5408 ± 0.0011
[1]; 303.15 K
  refractive index: 1.5402 ± 0.0011
[1]; 308.15 K
  refractive index: 1.539 ± 0.0011
[1]; 313.15 K
  refractive index: 1.5379 ± 0.0011
[1]; 318.15 K
  refractive index: 1.5367 ± 0.0011
[1]; 323.15 K
  refractive index: 1.5355 ± 0.0011
[1]; 328.15 K
  refractive index: 1.5344 ± 0.0011
[1]; 333.15 K
  refractive index: 1.5329 ± 0.0011
[1]; 338.15 K
  refractive index: 1.5317 ± 0.0011
[1]; 343.15 K
  refractive index: 1.5306 ± 0.0011
[2]; 298.15 K
  viscosity: 10644 ± 1600 mPa·s
  mass density: 1121.04 ± 2 kg/m3
  electrical conductivity: 3e-05 ± 1e-05 S/m
[2]; 303.15 K
  viscosity: 5437.3 ± 770 mPa·s
  mass density: 1118.21 ± 2 kg/m3
  electrical conductivity: 0.00013 ± 1e-05 S/m
[2]; 308.15 K
  viscosity: 2824.6 ± 380 mPa·s
  mass density: 1115.35 ± 2 kg/m3
  electrical conductivity: 0.00035 ± 1e-05 S/m
[2]; 313.15 K
  viscosity: 1515.3 ± 190 mPa·s
  mass density: 1112.49 ± 2 kg/m3
  electrical conductivity: 0.0007 ± 2e-05 S/m
[2]; 318.15 K
  viscosity: 839.1 ± 100 mPa·s
  mass density: 1109.61 ± 2 kg/m3
  electrical conductivity: 0.0013 ± 4e-05 S/m
[2]; 323.15 K
  viscosity: 463.5 ± 55 mPa·s
  mass density: 1106.69 ± 2 kg/m3
  electrical conductivity: 0.00204 ± 6e-05 S/m
[2]; 328.15 K
  viscosity: 307 ± 36 mPa·s
  electrical conductivity: 0.00291 ± 9e-05 S/m
[2]; 333.15 K
  viscosity: 163.7 ± 18 mPa·s
  mass density: 1100.61 ± 2 kg/m3
  electrical conductivity: 0.00435 ± 0.00013 S/m
[2]; 338.15 K
  viscosity: 114 ± 13 mPa·s
  mass density: 1097.81 ± 2 kg/m3
  electrical conductivity: 0.00552 ± 0.00017 S/m
[2]; 343.15 K
  viscosity: 70.1 ± 7.8 mPa·s
  mass density: 1095.03 ± 2 kg/m3
  electrical conductivity: 0.00649 ± 0.00019 S/m
[2]; 348.15 K
  viscosity: 46.3 ± 5.1 mPa·s
  mass density: 1092.12 ± 2 kg/m3
  electrical conductivity: 0.00779 ± 0.00023 S/m
[2]; 353.15 K
  viscosity: 33.7 ± 3.7 mPa·s
  mass density: 1089.39 ± 2 kg/m3
  electrical conductivity: 0.00941 ± 0.00028 S/m

## C[N+](C)(C)CCO.N[C@@H](CO)C(=O)[O-] [2-hydroxy-N,N,N-trimethylethanaminium L-serinate]
[1]; 293.15 K
  refractive index: 1.5447 ± 0.0011
[1]; 298.15 K
  refractive index: 1.5429 ± 0.0011
[1]; 303.15 K
  refractive index: 1.5416 ± 0.0011
[1]; 308.15 K
  refractive index: 1.5408 ± 0.0011
[1]; 313.15 K
  refractive index: 1.5397 ± 0.0011
[1]; 318.15 K
  refractive index: 1.5388 ± 0.0011
[1]; 323.15 K
  refractive index: 1.5382 ± 0.0011
[1]; 328.15 K
  refractive index: 1.5366 ± 0.0011
[1]; 333.15 K
  refractive index: 1.5349 ± 0.0011
[1]; 338.15 K
  refractive index: 1.5341 ± 0.0011
[1]; 343.15 K
  refractive index: 1.5326 ± 0.0011
[2]; 298.15 K
  viscosity: 11544 ± 1700 mPa·s
  mass density: 1191.51 ± 2 kg/m3
  electrical conductivity: 0.00093 ± 3e-05 S/m
[2]; 303.15 K
  viscosity: 6543.1 ± 930 mPa·s
  mass density: 1188.65 ± 2 kg/m3
  electrical conductivity: 0.00145 ± 4e-05 S/m
[2]; 308.15 K
  viscosity: 3793.3 ± 520 mPa·s
  mass density: 1185.79 ± 2 kg/m3
  electrical conductivity: 0.00229 ± 7e-05 S/m
[2]; 313.15 K
  viscosity: 2186.5 ± 290 mPa·s
  mass density: 1182.9 ± 2 kg/m3
  electrical conductivity: 0.00359 ± 0.00011 S/m
[2]; 318.15 K
  viscosity: 1306 ± 160 mPa·s
  mass density: 1179.92 ± 2 kg/m3
  electrical conductivity: 0.00553 ± 0.00017 S/m
[2]; 323.15 K
  viscosity: 811.5 ± 99 mPa·s
  mass density: 1176.87 ± 2 kg/m3
  electrical conductivity: 0.00833 ± 0.00025 S/m
[2]; 328.15 K
  viscosity: 522.9 ± 62 mPa·s
  mass density: 1173.97 ± 2 kg/m3
  electrical conductivity: 0.0122 ± 0.00037 S/m
[2]; 333.15 K
  viscosity: 346.6 ± 40 mPa·s
  mass density: 1171.2 ± 2 kg/m3
  electrical conductivity: 0.0175 ± 0.00053 S/m
[2]; 338.15 K
  viscosity: 237.7 ± 27 mPa·s
  mass density: 1168.38 ± 2 kg/m3
  electrical conductivity: 0.0266 ± 0.0008 S/m
[2]; 343.15 K
  viscosity: 167.5 ± 19 mPa·s
  mass density: 1165.5 ± 2 kg/m3
  electrical conductivity: 0.037 ± 0.0011 S/m
[2]; 348.15 K
  viscosity: 120.1 ± 13 mPa·s
  mass density: 1162.54 ± 2 kg/m3
  electrical conductivity: 0.0495 ± 0.0015 S/m
[2]; 353.15 K
  viscosity: 90.2 ± 10 mPa·s
  mass density: 1159.37 ± 2 kg/m3
  electrical conductivity: 0.0688 ± 0.0021 S/m
